In one data set the test system is EGFR− HEK293 cells. Kind of data set: XTT cell viability / cytotoxicity, HEK293 cells. It is filed as cell-based. The note with it: 6 h pre-incubation, wash; for effect on EGFR− HEK-293 cells: further incubation, in words; for IC50: HEK293, XTT. The protocol: (§1) Cell proliferation in the presence of P6-SN38 was evaluated using a commercial XTT assay kit (Enhanced Cell Counting Kit 8 (WST-8/CCK8); Elabscience, Houston, TX, USA). A total of 10^4 cells per well were seeded in 96-well plates and incubated overnight in complete RPMI growth medium. After washing, the cells were cultured in 100 µL of fresh medium containing varying concentrations of free SN38 or PDC for 3 h and 6 h (pre-incubation). Following this, the cells were washed again and incubated for an additional 24, 48, and 72 h. The XTT reagent was then added to each well, and the plate was incubated for 2 h at 37 °C. For cytotoxicity analysis, absorbance was measured at 450 nm and 630 nm using a TECAN Infinite M200 ELISA reader (Citrine Solutions, Oranit, Israel). All assays were performed in triplicate, and each experiment was repeated three times.
(§2) Figure 2 Cell viability after 6 h of pre-incubation of EGFR+ H1299 (A) and EGFR− HEK293 (B) cell lines with P6-SN38 and SN38. H1299 and HEK293 cells were cultured in a 96-well plate and pre-incubated with six different concentrations (0.5, 2.5, 5, 10, 15, and 25 μM) of P6-SN38 or SN38 for 6 h, washed out, and incubated additionally for 24 h, 48 h, and 72 h. Cell viability was assessed using an XTT assay, with the viability of untreated control cells set at 100%. The viability of treated cells was expressed as a percentage relative to the control. Data are presented as the mean ± standard deviation (SD).

A short description of data set [1]: Mice body weight during efficacy study. Format: in vivo, NOD/SCID (nude) mice. The note with it: i.v. once a week, 3 times; P6-SN38 10 mg/kg, Erbitux 10 mg/kg, free SN38 3 mg/kg; 18 days; N = 4. The protocol: (§3) When tumors reached~50 mm^3, mice were injected via tail vein (i.v.).
(§4) The mice’s weight and tumor volumes were measured every 2 days. The tumor sizes were measured by using the hands-on digital caliper method, and the tumor volumes were calculated according to the Formula (1). Tumor volume (mm^3) = 0.5 × Tumor Length × Tumor Width^2(1)
(§5) The resected tumors are shown in (C). N = 4 in each group. * p < 0.05, ** p < 0.005, *** p < 0.001, **** p < 0.0001.

For a further data set, the system named is H1299 (EGFR+) tumor. Kind of data set: In vivo tumor growth inhibition, H1299 (EGFR+) xenograft. On the set-up: species or system NOD/SCID (nude) mice. The following applies: 3 times, N = 4. The protocol:
(§6) Animal protocols were approved by the Institutional Animal Care and Use Committee at Ariel University. NOD/SCID (nude) mice were injected with H1299 in the right flank and K562 cells in the left flank (10^6 cells each), so that each mouse developed dual H1299 and K562 xenografts.
as §3, §4, §5

Data set [2] relates to H1299 cells. Kind of data set: Apoptosis assay, Annexin V-FITC/PI flow cytometry. Format: cell-based. The note with it: 2.5 µM, 6 h pre-treatment, wash, mean ± SD; for apoptotic rate / late-stage apoptosis rate: 24 h; for apoptosis / late apoptosis rate: 48 h. The protocol: H1299 cells were seeded at the concentration of 5 × 10^4 cells/mL in the RPMI 1640 growth medium and incubated in 6-well plates at 37 °C under 5% CO2. The next day, the medium was removed, and P6-SN38, or free SN38 (2.5 µM), in fresh medium was added and incubated for 6 h. Then, the medium was removed by washing out, fresh medium was added, and the plates were incubated for an additional 24 and 48 h. The cells were collected with 0.25% trypsin/EDTA solution and washed with PBS twice at 1500 rpm for 5 min. After that, Annexin-FITC (5 µM) and propidium Iodide (PI, 5 µM) were added (both from Abcam, Cambridge, UK). The cells were incubated for 15 min in the dark, and the samples (2 × 10^4 cells) were analyzed by flow cytometry.
SN38, a potent topoisomerase I inhibitor, disrupts DNA replication, leading to cell cycle arrest and apoptosis. To evaluate and compare the effects of peptide-bound SN38 (P6-SN38) and free SN38 on DNA damage and cell cycle distribution (Section 3.4), H1299 cells were pre-treated with both compounds at a concentration of 2.5 µM for 6 h, followed by washing and continued incubation for 24 or 48 h (Figure 3).
Figure 3 Apoptosis of H1299 cells estimated through cell survival percentage by binding with annexin V-FITC. H1299 cells were pre-incubated with P6-SN38 and SN38 as described in Section 2.6. Cells were stained with annexin and PI and analyzed by flow cytometry; * p < 0.05, *** p < 0.001, **** p < 0.0005. “ns” means non-significant.

The test system of the next data set is EGFR+ H1299 cells. Kind of data set: XTT cell viability / cytotoxicity, H1299 cells. It is filed as cell-based. The note with it: 6 h pre-incubation, wash. The protocol: as §1, §2
Data set [3] concerns H1299 cells. Kind of data set: Cell cycle analysis, PI flow cytometry. It is filed as cell-based. The following applies: 2.5 µM, 6 h pre-treatment, in words. The protocol: Cell cycle analysis was conducted using a cell cycle detection kit (Biotopped, Huangshan, China). H1299 cells were seeded in 5 × 10^4 cells/mL concentration in the complete growth medium. (RPMI 1640) Incubation was performed in 6-well plates at 37 °C under 5% CO2. The next day, the medium was removed, and the fresh medium containing P6-SN38 or free SN38 (2.5 µM) was added and incubated for 6 h. Then, the medium was removed by washing, a fresh medium was added, and the cells were incubated for an additional 24 and 48 h. Then, the cells were trypsinized and washed with PBS twice at 1500 rpm for 5 min. Cells were fixed in 66% ethanol for 2 h. Then, cells were incubated with 0.2 mL buffer solution containing PI (25 μL) and RNase A (10 μL) after being rinsed with cold PBS (according to the manufacturer’s protocol). Finally, the cell cycle was analyzed by Beckman CytoFLEX FCM (Bio-Rad Laboratories, Inc., Rishon Le Zion, Israel).
To investigate whether the observed growth inhibition and apoptosis were mediated by cell cycle arrest, we examined the effects of P6-SN38 and free SN38 on cell cycle progression in NSCLC H1299 cells. The cells were pre-treated with the compounds for 6 h, followed by an additional 24 or 48 h incubation period (Figure 4A,B).
Figure 4 Cell cycle arrest analysis of treatment with SN38 and P6-SN38. Cell cycle distribution of H1299 cells detected by flow cytometry after 24 h (A) and 48 h (B) treatment with SN38 and P6-SN38 at 2.5 µM. A total of 1 × 10^6 cells were pre-incubated with P6-SN38 or SN38 for 6 h, followed by additional incubation for 24 h and 48 h. The cells were then stained with propidium iodide (PI) and analyzed by flow cytometry (C). The data in A and B are presented as the mean ± SD (n = 3). “ns” means non-significant. * p < 0.05, *** p < 0.001, **** p < 0.0005. “ns” means non-significant. TEXT PRINTED IN THE PICTURE: (C) 01-H1299_P6_24h-B9.fcs: %G1 : 6.76; %S : 52.1; %G2 : 40.6 | (C) 01-H1299_P6_48h-D8.fcs: %G1 : 9.76; %S : 47.2; %G2 : 40.6 | (C) 01-H1299_SN_24h-A9.fcs: %G1 : 0; %S : 39.4; %G2 : 54.0 | (C) 01-H1299_SN_48h-C8.fcs: %G1 : 9.66; %S : 61.4; %G2 : 27.8 DOUBTS OF THE COPYIST ABOUT THIS PICTURE: 01-H1299_P6_24h-B9.fcs, %G1: small print, 6.76 could be 8.76 or 6.78 / 01-H1299_P6_24h-B9.fcs, %G2: small print, 40.6 could be 40.8 / 01-H1299_P6_48h-D8.fcs, %G1: small print, 9.76 could be 9.78 / 01-H1299_P6_48h-D8.fcs, %G2: small print, 40.6 could be 40.8 / 01-H1299_SN_24h-A9.fcs, %S: small print, 39.4 could be 38.4 / 01-H1299_SN_48h-C8.fcs, %G1: small print, 9.66 could be 9.68 or 9.86 / 01-H1299_SN_48h-C8.fcs, %G2: small print, 27.8 could be 27.6 / The untreated samples (01-H1299_24h_UT-A6.fcs, 01-H1299_UT_48h-C6.fcs) were left out because they stand for no substance. The RMSD values were left out as fit statistics.

A further data set deals with K562 (EGFR−) tumor. Kind of data set: In vivo tumor growth inhibition, K562 (EGFR−) xenograft. On the set-up: species or system NOD/SCID (nude) mice. The following applies: 10 mg/kg i.v. once a week, 3 times. The protocol: as §6, §3, §4
Figure 6 In vivo effect of P6-SN38 conjugate in NSCLC model (10 mg/kg, once a week). […] The resected tumors are shown in (C). N = 4 in each group. * p < 0.05, ** p < 0.005, *** p < 0.001, **** p < 0.0001.

SMILES strings stand for the structures. Positions of bridges follow the written chain, without caps; N, C: chain ends. Residues, ends and D or L forms follow the SMILES beside them. *: point of attachment. X1 = CCc1c2c(nc3ccc(O)cc13)-c1cc3c(c(=O)n1C2)COC(=O)[C@@]3(CC)OC(=O)CCC(=O)*; GABA = NCCCC(=O)O

Take `CCc1c2c(nc3ccc(O)cc13)-c1cc3c(c(=O)n1C2)COC(=O)[C@@]3(CC)OC(=O)CCC(=O)NCCCC(=O)N[C@H]1CSSC[C@@H](C(N)=O)NC(=O)[C@H]([C@@H](C)CC)NC(=O)[C@H](Cc2ccc(O)cc2)NC(=O)[C@H](CO)NC(=O)CNC(=O)[C@@H]2CCCN2C(=O)[C@H](C(C)C)NC(=O)[C@H](Cc2c[nH]cn2)NC1=O` [P6-SN38] ({X1-GABA}-CHVPGSYIC-NH2; disulfide 1-9): in the data set on EGFR− HEK293 cells, the “effect on EGFR− HEK-293 cells” value is on record as “nearly no effect”. In addition, the IC50 in the data set with EGFR− HEK293 cells (48 h incubation) is greater than 50000 nM; in the data set with EGFR− HEK293 cells (72 h incubation), greater than 50000 nM; with EGFR+ H1299 cells (48 h incubation), 2500 nM; in the data set on EGFR+ H1299 cells (72 h incubation), 900 nM. In data set [1], the “mice weight loss, in words” value is listed as “minimal weight loss”. The H1299 tumor eradication result in the data set with H1299 (EGFR+) tumor (10 mg/kg i.v. once a week, day 18) is given as “eradicated completely in 3 out of 4 mice”. The apoptotic rate in the data set with H1299 cells [2] was found to be 12.9 ± 4.2%. For the same compound, the late-stage apoptosis rate with H1299 cells [2] stood at 14.1 ± 7.3%. Moreover, the apoptosis in the data set with H1299 cells [2] was found to be 21.48 ± 9.90%. Moreover, the late apoptosis rate in the data set on H1299 cells [2] was 25.32 ± 10.00%. Also, the “cell cycle phase of arrest” value is “both the S and G2/M phases” in the data set with H1299 cells [3] (24 h); “S/G2 phase arrest” in the data set on H1299 cells [3] (48 h). In the data set with K562 (EGFR−) tumor (18 days), the “effect on growth of K562 (EGFR−) tumors, in words” value is listed as “did not affect the growth”. Also, the K562 tumor volume in the data set on K562 (EGFR−) tumor (day 18, initial ~50 mm^3, control 1772 ± 265, N = 4) was determined as 1522 ± 561 mm^3.

`CCc1c2c(nc3ccc(O)cc13)-c1cc3c(c(=O)n1C2)COC(=O)[C@]3(O)CC` [SN38]: in the data set with EGFR− HEK293 cells, the “effect on EGFR− HEK-293 cells” value is recorded as “active in both cell lines”. In addition, the IC50 with EGFR− HEK293 cells (48 h incubation) was found to be 4400 nM; with EGFR− HEK293 cells (72 h incubation) it was 2700 nM; in the data set on EGFR+ H1299 cells (48 h incubation), 800 nM; in the data set on EGFR+ H1299 cells (72 h incubation), 500 nM. In addition, in data set [1], the “mice weight loss, in words” value is “significant weight loss”. The “effect on tumor growth, in words” value with H1299 (EGFR+) tumor (i.v. once a week, Erbitux 10 mg/kg, free SN38 3 mg/kg, 18 days) is recorded as “non-specific tumor reduction”. For the same compound, the apoptotic rate in the data set on H1299 cells [2] amounted to 16.3 ± 6.4%. In the data set on H1299 cells [2], the late-stage apoptosis rate is on record as 15.2 ± 6.8%. For the same compound, the apoptosis in the data set with H1299 cells [2] was found to be 19.27 ± 5.11%. For the same compound, the late apoptosis rate in the data set on H1299 cells [2] stood at 26.80 ± 14.90%. For the same compound, the figures for the “cell cycle phase of arrest” value in the data set with H1299 cells [3] (24 h) and in the data set with H1299 cells [3] (48 h) were “G2/M phase arrest” and “S/G2 phase arrest”, respectively.

(Values after PMC11676734, “Novel Cyclic Peptide–Drug Conjugate P6-SN38 Toward Targeted Treatment of EGFR Overexpressed Non-Small Cell Lung Cancer” (Pharmaceutics, 2024).)
